# Experiments:
# [1] = test system: HEK293 cells stably transfected the α1H gene; assay: Proliferation of HEK293 cells stably transfected with α1H; format: cell-based; conditions: FIG. 5
# [2] = test system: Jurkat cells; assay: Inhibition of proliferation of Jurkat cells; format: cell-based, human; conditions: Jurkat
# Procedure: (§1) Cancer cell lines were obtained from the American Type Culture Collection (Manassas, Va.). Cell lines were maintained in RPMI1640 supplemented with glutamine and 5% fetal bovine serum containing SerXtend (Irvine Scientific) when appropriate insulin, as directed by the ATCC. The fetal bovine serum used for culture was heat-inactivated by maintaining the serum at 56° C. for 1 h. Cell lines used were a T celleukemia (Jurkat), prostate cancer (PC3, DU145, LNCAP), breast cancer (MDA468, MDA361, MCF7), pancreatic cancer (MIA PaCa2), liver cancer (Hep G2), lung cancer (A549, NCl H460), colon cancer (HT29, HCT 116), and ovarian cancer (SK-OV-3).
# (§2) LNCaP cells at 2.5×10^4 cells/well or PC-3 cells at 5×10^4 cells/well, both in a final volume of […], were plated in triplicate in standard flat-bottomed 96-well tissue culture plates in the presence of drug or vehicle (DMSO). Unless otherwise indicated, cells were grown for 48 h at 37° C. in a CO2 incubator. Relative cell growth was determined with the CellTiter 96 aqueous cell proliferation assay (Promega, Madison, Wis.) as described by the manufacturer using an automated plate reader. Results were calculated in a blinded fashion and are the means of triplicate determinations.
# [3] = test system: PC3 cells; assay: Inhibition of proliferation of PC3 cells; format: cell-based, human
# Procedure: as §1, §2
# [4] = target: T1, α1H isoform of T type Ca2+ channels (Homo sapiens, UniProt O95180); assay: Inhibition of Ca2+ current through transfected α1H channels; format: cell-based; conditions: FIG. 7
# T1 construct: expressed in transfected cells; host or cells: HEK293 (stably transfected)
# [5] = test system: human PC3 prostate cancer cells; conditions: xenografted PC3, Haverstick et al. 2000; cited from earlier work
# [6] = test system: Jurkat cells; assay: Inhibition of calcium entry into Jurkat cells (indo-1 fluorescence); format: cell-based, human; conditions: Homo sapiens; Jurkat; NE = no effect at highest concentration of drug tested; read-out: Ca2+: IC50 for inhibition of calcium entry, Jurkat
# Procedure: Cells were incubated in growth media containing 1 uM of the acetoxy-methyl ester of the Ca2+-sensitive fluorescent dye indo-1 (indo-1/AM; Molecular Probes, Eugene, Oreg.) for 1 h at 37° C. Cells were washed three times in buffer A [10 mM HEPES (pH 7.4), 1 mM MgCl2, 3 mM KCl, 1 mM CaCl2, 140 mM NaCl, 0.1% glucose, and 1% fetal bovine serum] and suspended to a final concentration of 10^6 cells/ml. Before stimulation, cells were warmed to 37° C. Changes in [Ca2+]i were monitored in an SLM […] spectrofluorimeter (SLM/Aminco; Urbana, Ill.) using previously published methods ([…]., Szabo, G., and Gray, L. S. 1996. A voltage operable current is involved in activation-induced Ca^2+ entry in human lymphocytes whereas ICRAC has no apparent role. Am. J. Physiol. 271:[…]., and Gray, L. S. 1998. Calmodulin regulation of Ca^2+ entry in Jurkat T cells. Cell Calcium 23:361-368).
# [7] = test system: PC3 cells; assay: Inhibition of calcium entry into PC3 cells; format: cell-based; conditions: Homo sapiens, PC-3, NE = no effect at highest concentration of drug tested, read-out: Ca2+: IC50 for inhibition of calcium entry, PC3
# Procedure: (§3) Cells were incubated in growth media containing 1 uM of the acetoxy-methyl ester of the Ca2+-sensitive fluorescent dye indo-1 (indo-1/AM; Molecular Probes, Eugene, Oreg.) for 1 h at 37° C. Cells were washed three times in buffer A [10 mM HEPES (pH 7.4), 1 mM MgCl2, 3 mM KCl, 1 mM CaCl2, 140 mM NaCl, 0.1% glucose, and 1% fetal bovine serum] and suspended to a final concentration of 10^6 cells/ml. Before stimulation, cells were warmed to 37° C. Changes in [Ca2+]i were monitored in an SLM 8100C spectrofluorimeter (SLM/Aminco; Urbana, Ill.) using previously published methods (Densmore, J. J., Haverstick, D. M., Szabo, G., and Gray, L. S. 1996. A voltage operable current is involved in activation-induced Ca^2+ entry in human lymphocytes whereas ICRAC has no apparent role. Am. J. Physiol. 271:C1494-C1503; Haverstick, D. M., Densmore, J. J., and Gray, L. S. 1998. Calmodulin regulation of Ca^2+ entry in Jurkat T cells. Cell Calcium 23:361-368).
# [8] = test system: LNCaP cells; assay: Inhibition of proliferation of LNCaP cells; format: cell-based; conditions: Homo sapiens, NE = no effect at highest concentration of drug tested, read-out: prolif: IC50 for inhibition of proliferation, LNCaP
# Procedure: as §1, §2
# [9] = test system: MDA-435 cells; assay: Inhibition of proliferation of MDA-435 cells; format: cell-based; conditions: MDA435, NE = no effect at highest concentration of drug tested, read-out: prolif: IC50 for inhibition of proliferation, MDA-435
# [10] = test system: MDA-231 cells; assay: Inhibition of proliferation of MDA-231 cells; format: cell-based; conditions: Homo sapiens, MDA-MB-231, NE = no effect at highest concentration of drug tested, read-out: prolif: IC50 for inhibition of proliferation, MDA-231
# [11] = test system: MDA-231 cells; assay: Inhibition of calcium entry into MDA-231 cells; format: cell-based; conditions: Homo sapiens, MDA-MB-231, NE = no effect at highest concentration of drug tested, read-out: Ca2+: IC50 for inhibition of calcium entry, MDA-231
# Procedure: as §3
# [12] = test system: LNCaP cells; assay: Inhibition of calcium entry into LNCaP cells; format: cell-based; conditions: Homo sapiens, NE = no effect at highest concentration of drug tested, read-out: Ca2+: IC50 for inhibition of calcium entry, LNCaP
# Procedure: as §3
# [13] = test system: MDA-435 cells; assay: Inhibition of calcium entry into MDA-435 cells; format: cell-based; conditions: MDA435, NE = no effect at highest concentration of drug tested, read-out: Ca2+: IC50 for inhibition of calcium entry, MDA-435
# Procedure: as §3
# [14] = test system: MDA-361 cells; assay: Inhibition of proliferation of MDA-361 cells; format: cell-based; conditions: MDA361, NE = no effect at highest concentration of drug tested, read-out: prolif: IC50 for inhibition of proliferation, MDA-361
# Procedure: as §1, §2
# [15] = test system: MDA-361 cells; assay: Inhibition of calcium entry into MDA-361 cells; format: cell-based; conditions: MDA361, NE = no effect at highest concentration of drug tested, read-out: Ca2+: IC50 for inhibition of calcium entry, MDA-361
# Procedure: as §3
# [16] = FIG. 6 panel B, read-out: IC50, proliferation of PC3 human prostate cancer cells
# [17] = Homo sapiens, NE = no effect at highest concentration of drug tested, read-out: prolif: IC50 for inhibition of proliferation, Jurkat
# [18] = Homo sapiens, PC-3, PC3, NE = no effect at highest concentration of drug tested, read-out: prolif: IC50 for inhibition of proliferation, PC3
# T1 sequence (O95180 whole entry, canonical isoform): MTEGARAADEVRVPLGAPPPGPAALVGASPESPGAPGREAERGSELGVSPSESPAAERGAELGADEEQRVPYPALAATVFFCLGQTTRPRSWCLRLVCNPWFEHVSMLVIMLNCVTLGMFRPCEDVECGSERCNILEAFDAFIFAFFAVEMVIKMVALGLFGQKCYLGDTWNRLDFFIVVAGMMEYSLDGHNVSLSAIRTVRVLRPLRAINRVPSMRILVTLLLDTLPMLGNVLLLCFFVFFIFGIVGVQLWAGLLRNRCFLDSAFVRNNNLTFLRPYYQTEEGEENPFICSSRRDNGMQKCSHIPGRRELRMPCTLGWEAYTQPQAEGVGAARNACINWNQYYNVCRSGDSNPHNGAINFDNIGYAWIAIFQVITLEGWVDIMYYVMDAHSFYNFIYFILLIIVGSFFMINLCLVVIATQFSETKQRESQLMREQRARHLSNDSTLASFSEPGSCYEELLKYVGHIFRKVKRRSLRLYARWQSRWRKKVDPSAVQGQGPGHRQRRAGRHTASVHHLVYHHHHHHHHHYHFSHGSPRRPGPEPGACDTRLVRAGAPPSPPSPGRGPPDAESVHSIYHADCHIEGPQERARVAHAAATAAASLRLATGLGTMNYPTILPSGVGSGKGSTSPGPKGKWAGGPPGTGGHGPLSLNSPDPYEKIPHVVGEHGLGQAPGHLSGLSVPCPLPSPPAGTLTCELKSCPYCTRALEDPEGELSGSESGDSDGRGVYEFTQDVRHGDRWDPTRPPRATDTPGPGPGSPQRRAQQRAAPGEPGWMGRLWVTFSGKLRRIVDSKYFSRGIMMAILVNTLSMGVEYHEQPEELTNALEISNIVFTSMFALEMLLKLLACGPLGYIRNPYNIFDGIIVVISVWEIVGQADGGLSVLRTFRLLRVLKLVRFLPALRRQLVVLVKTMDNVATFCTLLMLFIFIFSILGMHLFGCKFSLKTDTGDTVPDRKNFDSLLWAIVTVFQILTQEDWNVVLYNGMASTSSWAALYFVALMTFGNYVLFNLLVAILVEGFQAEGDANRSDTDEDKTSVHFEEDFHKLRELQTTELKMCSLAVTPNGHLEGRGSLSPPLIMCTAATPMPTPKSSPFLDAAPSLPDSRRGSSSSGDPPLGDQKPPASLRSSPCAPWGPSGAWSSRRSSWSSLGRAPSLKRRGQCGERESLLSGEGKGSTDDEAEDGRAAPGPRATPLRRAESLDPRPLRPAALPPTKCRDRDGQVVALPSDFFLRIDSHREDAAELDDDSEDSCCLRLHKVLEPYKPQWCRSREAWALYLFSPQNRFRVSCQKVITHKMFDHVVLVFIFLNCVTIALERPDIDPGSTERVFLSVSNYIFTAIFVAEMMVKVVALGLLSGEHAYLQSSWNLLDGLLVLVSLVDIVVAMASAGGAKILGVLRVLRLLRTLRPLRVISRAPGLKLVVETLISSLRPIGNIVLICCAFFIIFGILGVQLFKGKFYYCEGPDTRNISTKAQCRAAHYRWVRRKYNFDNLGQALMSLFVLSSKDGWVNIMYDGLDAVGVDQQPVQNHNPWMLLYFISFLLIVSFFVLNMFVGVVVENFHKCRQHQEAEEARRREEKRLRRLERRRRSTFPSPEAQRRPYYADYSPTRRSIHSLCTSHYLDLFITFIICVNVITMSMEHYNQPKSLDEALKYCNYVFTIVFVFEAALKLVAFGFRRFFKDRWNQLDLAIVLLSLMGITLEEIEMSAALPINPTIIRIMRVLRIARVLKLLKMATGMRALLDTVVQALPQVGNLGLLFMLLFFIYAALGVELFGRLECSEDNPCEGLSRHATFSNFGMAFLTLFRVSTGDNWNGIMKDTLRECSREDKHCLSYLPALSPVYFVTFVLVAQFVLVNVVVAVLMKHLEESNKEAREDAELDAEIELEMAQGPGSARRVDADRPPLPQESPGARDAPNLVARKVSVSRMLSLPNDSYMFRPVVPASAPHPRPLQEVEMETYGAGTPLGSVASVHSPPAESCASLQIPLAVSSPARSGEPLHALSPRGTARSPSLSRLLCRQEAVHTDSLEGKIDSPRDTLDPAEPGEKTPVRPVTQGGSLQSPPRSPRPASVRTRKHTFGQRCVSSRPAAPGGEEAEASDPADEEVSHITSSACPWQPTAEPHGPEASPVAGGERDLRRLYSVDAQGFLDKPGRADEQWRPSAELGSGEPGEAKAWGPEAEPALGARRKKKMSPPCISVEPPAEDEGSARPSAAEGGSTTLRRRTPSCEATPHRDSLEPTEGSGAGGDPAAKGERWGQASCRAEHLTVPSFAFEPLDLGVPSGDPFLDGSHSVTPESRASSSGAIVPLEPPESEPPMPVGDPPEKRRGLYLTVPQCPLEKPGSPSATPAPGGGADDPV
Structure (SMILES),proliferation of stably transfected HEK293 cells [1],"IC50 ([2]; 48 hrs, in the absence of ionomycin, read-out: IC50 of TH-1177 for inhibition of proliferation) [µM]","IC50 ([2]; 48 hrs, in the presence of 30 uM ionomycin, read-out: IC50 of TH-1177 for inhibition of proliferation) [µM]","IC50 [3, 16] [µM]",IC50 [4] [µM],lifespan of nude mice inoculated with human PC3 prostate cancer cells [5],"IC50 [2, 17] [µM]",IC50 [6] [µM],"IC50 [3, 18] [µM]",IC50 [7] [µM],IC50 [8] [µM],IC50 [9] [µM],IC50 [10] [µM],IC50 [11] [µM],IC50 [12] [µM],IC50 [13] [µM],IC50 [14] [µM],IC50 [15] [µM]
"COCC(=O)O[C@]1(CCN(C)CCCc2nc3ccccc3[nH]2)CCc2cc(F)ccc2[C@@H]1C(C)C [mibefradil, reference compound]",inhibits proliferation,–,–,–,–,–,–,–,–,–,–,–,–,–,–,–,–,–
COc1ccc(CCN2CCC[C@H]2COC(c2ccccc2)c2ccc(Cl)cc2)cc1 (stereo partly drawn) [TH-1177],inhibits proliferation,17.8,4.6,14,0.8,significantly extended the lifespan,–,–,–,–,–,–,–,–,–,–,–,–
COc1ccc(CCCCNCCC(c2ccccc2)c2ccc(Cl)cc2)cc1 (stereo not drawn) [Compound 3.21],–,–,–,–,–,–,30,30,11,30,7,9,15,30,–,–,–,–
COc1ccc(CCNCCOC(c2ccccc2)c2ccc(Cl)cc2)cc1 (stereo not drawn) [Compound 3.8],–,–,–,–,–,–,7.5,10,11.5,10,3.5,15.7,10.6,10,10,10,7.6,20
COc1ccc(C(O)CCCCOC(c2ccccc2)c2ccc(Cl)cc2)cc1 (stereo not drawn) [Compound 3.5],–,–,–,–,–,–,50,7,33,30,25,65,50,10,10,10,45,25
COc1ccc(CNCCOC(c2ccccc2)c2ccc(Cl)cc2)cc1 (stereo not drawn) [Compound 3.9],–,–,–,–,–,–,3.8,3,4,–,1.6,12,11.7,10,3,10,4,5
COc1ccc(CCCNCCOC(c2ccccc2)c2ccc(Cl)cc2)cc1 (stereo not drawn) [Compound 3.4],–,–,–,–,–,–,3.7,3,10,~15,5.5,10,4,~20,15,15,4,10
COc1ccc(CNCCCCCC(c2ccccc2)c2ccc(Cl)cc2)cc1 (stereo not drawn) [Compound 3.1],–,–,–,–,–,–,4,10,11,–,3.5,12,8,10,10,25,8,10
COc1ccc(CCN2CCCC2COC(c2ccccc2)c2ccc(Cl)cc2)cc1 (stereo not drawn) [TH-1211],–,–,–,42,7,–,–,–,–,–,–,–,–,–,–,–,–,–
COc1ccc(C(=O)CCCCOC(c2ccccc2)c2ccc(Cl)cc2)cc1 (stereo not drawn) [Compound 3.6],–,–,–,–,–,–,> 100,> 100,> 100,> 100,~100,> 100,> 100,> 100,> 100,> 100,> 100,> 100
COc1ccc(CNCCCCOC(c2ccccc2)c2ccc(Cl)cc2)cc1 (stereo not drawn) [Compound 3.2],–,–,–,–,–,–,3,3,9,10,2,10.5,10,8,5,10,4,6

# From US20090234019A1, “T Type Calcium Channel Inhibitors” (priority 2004, published 2009)
